# Reference: ChEMBL document CHEMBL3751718, “Synthesis and biological evaluation of lipid-like 5-(2-hydroxyethyl)-4-methyl-1,3-thiazole derivatives as potential anticancer and antimicrobial agents” (Medchemcomm, 2015)
# Active and inactive are the calls of the source. No cut-off for these calls is given here.
# How the values were obtained:
# Aspergillus niger [1] = assay: Antifungal activity against Aspergillus niger MSCL 324 at 5 mg/ml after 48 hrs by agar dish diffusion method; assay type: functional
# Bacillus cereus [2] = assay: Antibacterial activity against Bacillus cereus MSCL 330 at 10 mg/ml after 24 hrs by agar dish diffusion method; assay type: functional; conditions: MSCL 330, 24 h, read-out: DIZ
# MG-22A [3] = assay: Cytotoxicity against mouse MG-22A cells assessed as cell viability at 6.25 to 50 ug/ml after 72 hrs by MTT assay; assay type: functional
# Staphylococcus aureus [4] = assay: Antibacterial activity against Staphylococcus aureus MSCL 334 at 5 mg/ml after 24 hrs by agar dish diffusion method; assay type: functional
# [5] = (§1) Cytotoxicity against human HT1080 cells assessed as cell viability at 6.25 to 50 ug/ml by crystal violet-based assay; assay type: functional; conditions: HT-1080, read-out: LC50 (the source's name)
# Proteus mirabilis [6] = assay: Antibacterial activity against Proteus mirabilis MSCL 590 at 5 mg/ml after 24 hrs by agar dish diffusion method; assay type: functional; conditions: MSCL 590, 24 h, read-out: DIZ
# Proteus mirabilis [7] = assay: Antibacterial activity against Proteus mirabilis MSCL 590 at 10 mg/ml after 24 hrs by agar dish diffusion method; assay type: functional; conditions: MSCL 590, 24 h, read-out: DIZ
# Pseudomonas aeruginosa [8] = assay: Antibacterial activity against Pseudomonas aeruginosa MSCL 331 at 5 mg/ml after 24 hrs by agar dish diffusion method; assay type: functional
# Escherichia coli [9] = assay: Antibacterial activity against Escherichia coli MSCL 332 at 10 mg/ml after 24 hrs by agar dish diffusion method; assay type: functional; conditions: MSCL 332, 24 h, read-out: DIZ
# Candida albicans [10] = assay: Antifungal activity against Candida albicans MSCL 378 at 10 mg/ml after 48 hrs by agar dish diffusion method; assay type: functional; conditions: MSCL 378, 48 h, read-out: DIZ
# [11] = Cytotoxicity against mouse NIH/3T3 cells assessed as cell viability at 6.25 to 50 ug/ml by neutral red-based assay; conditions: nih3t3
# MG-22A [12] = assay: Cytotoxicity against mouse MG-22A cells assessed as cell viability at 6.25 to 50 ug/ml by crystal violet-based assay; assay type: functional
# Staphylococcus aureus [13] = assay: Antibacterial activity against Staphylococcus aureus MSCL 334 at 10 mg/ml after 24 hrs by agar dish diffusion method; assay type: functional
# Candida albicans [14] = assay: Antifungal activity against Candida albicans MSCL 378 at 5 mg/ml after 48 hrs by agar dish diffusion method; assay type: functional; conditions: MSCL 378, 48 h, read-out: DIZ
# Pseudomonas aeruginosa [15] = assay: Antibacterial activity against Pseudomonas aeruginosa MSCL 331 at 10 mg/ml after 24 hrs by agar dish diffusion method; assay type: functional
# Escherichia coli [16] = assay: Antibacterial activity against Escherichia coli MSCL 332 at 5 mg/ml after 24 hrs by agar dish diffusion method; assay type: functional; conditions: MSCL 332, 24 h, read-out: DIZ
# CCRF S-180 [17] = assay: Antitumor activity against mouse S180 cells allografted into ICR mouse assessed as tumor growth inhibition at 2.5 mg/kg, sc administered on day 1,2,3 and 7 after 24 hrs tumor transplantation measured on day 9; assay type: functional; conditions: CCRF S-180, sc, read-out: TGI
# CCRF S-180 [18] = assay: Antitumor activity against mouse S180 cells allografted into ICR mouse assessed as tumor growth inhibition at 1.5 mg/kg, sc administered on day 1,2,3 and 7 after 24 hrs tumor transplantation measured on day 9; assay type: functional, organism-based
# Aspergillus niger [19] = assay: Antifungal activity against Aspergillus niger MSCL 324 at 10 mg/ml after 48 hrs by agar dish diffusion method; assay type: functional; conditions: MSCL 324, 48 h, read-out: DIZ
# HT-1080 [20] = assay: Induction of nitric oxide production in human HT1080 cells by Griess assay; assay type: functional; design: concentration or dose not given beside the values
# Bacillus cereus [21] = assay: Antibacterial activity against Bacillus cereus MSCL 330 at 5 mg/ml after 24 hrs by agar dish diffusion method; assay type: functional; conditions: MSCL 330, 24 h, read-out: DIZ
# MG-22A [22] = assay: Induction of nitric oxide production in mouse MG-22A cells by Griess assay; assay type: functional; design: concentration or dose not given beside the values
# [23] = (§2) Cytotoxicity against human HT1080 cells assessed as cell viability at 6.25 to 50 ug/ml after 72 hrs by MTT assay; assay type: functional; conditions: HT-1080, 72 h, read-out: LC50 (the source's name)
# HT-1080 [24] = assay: as §1; assay type: functional
# HT-1080 [25] = assay: as §2; assay type: functional
# Staphylococcus aureus [26] = assay: Antibacterial activity against Staphylococcus aureus MSCL 334 at 4 mg/ml after 24 hrs by agar dish diffusion method; assay type: functional, organism-based
# Candida albicans [27] = assay: Antifungal activity against Candida albicans MSCL 378 at 2 mg/ml after 48 hrs by agar dish diffusion method; assay type: functional; conditions: MSCL 378, 48 h, read-out: DIZ
# Proteus mirabilis [28] = assay: Antibacterial activity against Proteus mirabilis MSCL 590 at 4 mg/ml after 24 hrs by agar dish diffusion method; assay type: functional, organism-based
# Staphylococcus aureus [29] = assay: Antibacterial activity against Staphylococcus aureus MSCL 334 at 2 mg/ml after 24 hrs by agar dish diffusion method; assay type: functional, organism-based
# Escherichia coli [30] = assay: Antibacterial activity against Escherichia coli MSCL 332 at 2 mg/ml after 24 hrs by agar dish diffusion method; assay type: functional, organism-based
# Aspergillus niger [31] = assay: Fungicidal activity against Aspergillus niger MSCL 324 incubated for 24 hrs followed by colony transfer to agar plates for 24 hrs by colony counting based assay; assay type: functional; conditions: MSCL 324, 24 h, read-out: MFC99.9
# Aspergillus niger [32] = assay: Antifungal activity against Aspergillus niger MSCL 324 after 24 hrs by broth dilution method; assay type: functional; conditions: MSCL 324, 24 h
# Proteus mirabilis [33] = assay: Antibacterial activity against Proteus mirabilis MSCL 590 at 2 mg/ml after 24 hrs by agar dish diffusion method; assay type: functional, organism-based
# Pseudomonas aeruginosa [34] = assay: Antibacterial activity against Pseudomonas aeruginosa MSCL 331 at 2 mg/ml after 24 hrs by agar dish diffusion method; assay type: functional, organism-based
# Candida albicans [35] = assay: Antifungal activity against Candida albicans MSCL 378 after 24 hrs by broth dilution method; assay type: functional; conditions: MSCL 378, 24 h
# Bacillus cereus [36] = assay: Antibacterial activity against Bacillus cereus MSCL 330 at 4 mg/ml after 24 hrs by agar dish diffusion method; assay type: functional, organism-based
# Bacillus cereus [37] = assay: Antibacterial activity against Bacillus cereus MSCL 330 at 2 mg/ml after 24 hrs by agar dish diffusion method; assay type: functional, organism-based
# Aspergillus niger [38] = assay: Antifungal activity against Aspergillus niger MSCL 324 at 4 mg/ml after 48 hrs by agar dish diffusion method; assay type: functional; conditions: MSCL 324, 48 h, read-out: DIZ
# Pseudomonas aeruginosa [39] = assay: Antibacterial activity against Pseudomonas aeruginosa MSCL 331 at 4 mg/ml after 24 hrs by agar dish diffusion method; assay type: functional, organism-based
# Candida albicans [40] = assay: Fungicidal activity against Candida albicans MSCL 378 incubated for 24 hrs followed by colony transfer to agar plates for 24 hrs by colony counting based assay; assay type: functional; conditions: MSCL 378, 24 h, read-out: MFC99.9
# Escherichia coli [41] = assay: Antibacterial activity against Escherichia coli MSCL 332 at 4 mg/ml after 24 hrs by agar dish diffusion method; assay type: functional, organism-based
# Aspergillus niger [42] = assay: Antifungal activity against Aspergillus niger MSCL 324 at 2 mg/ml after 48 hrs by agar dish diffusion method; assay type: functional; conditions: MSCL 324, 48 h, read-out: DIZ
# [43] = read-out: LC50 (the source's name)
compound,measurement,setting,value
CCCCCCCCCCCOCCc1sc[n+](C)c1C.[I-],diameter of the inhibition zone (DIZ),Aspergillus niger [1],inactive
same,zone of inhibition at 10000 µg/mL,Bacillus cereus [2],26 mm
same,CC50,MG-22A [3]; [43],1820 nM
same,zone of inhibition at 5000 µg/mL,"Staphylococcus aureus [4]; MSCL 334, 24 h, read-out: DIZ",29 mm
same,CC50,[5],1820 nM
same,zone of inhibition at 5000 µg/mL,Proteus mirabilis [6],17 mm
same,zone of inhibition at 10000 µg/mL,Proteus mirabilis [7],18 mm
same,zone of inhibition at 5000 µg/mL,"Pseudomonas aeruginosa [8]; MSCL 331, 24 h, read-out: DIZ",11 mm
same,zone of inhibition at 10000 µg/mL,Escherichia coli [9],27 mm
same,zone of inhibition at 10000 µg/mL,Candida albicans [10],30 mm
same,LC50,[11],93300 nM
same,CC50,MG-22A [12]; [43],1360 nM
same,zone of inhibition at 10000 µg/mL,"Staphylococcus aureus [13]; MSCL 334, 24 h, read-out: DIZ",32 mm
same,zone of inhibition at 5000 µg/mL,Candida albicans [14],28 mm
same,zone of inhibition at 10000 µg/mL,"Pseudomonas aeruginosa [15]; MSCL 331, 24 h, read-out: DIZ",12 mm
same,zone of inhibition at 5000 µg/mL,Escherichia coli [16],25 mm
same,inhibition in vivo at 2.5 mg/kg,CCRF S-180 [17],56%
same,inhibition,CCRF S-180 [18],inactive
same,zone of inhibition at 10000 µg/mL,Aspergillus niger [19],17 mm
same,Activity,HT-1080 [20],150%
same,zone of inhibition at 5000 µg/mL,Bacillus cereus [21],25 mm
same,Activity,MG-22A [22],150%
same,CC50,[23],1820 nM
Cc1c(CCO)sc[n+]1C.[I-],zone of inhibition at 5000 µg/mL,"Aspergillus niger [1]; MSCL 324, 48 h, read-out: DIZ",9 mm
same,zone of inhibition at 10000 µg/mL,Bacillus cereus [2],8 mm
same,LC50,MG-22A [3],inactive
same,diameter of the inhibition zone (DIZ),Staphylococcus aureus [4],inactive
same,LC50,HT-1080 [24],inactive
same,zone of inhibition at 5000 µg/mL,Proteus mirabilis [6],8 mm
same,zone of inhibition at 10000 µg/mL,Proteus mirabilis [7],8 mm
same,diameter of the inhibition zone (DIZ),Pseudomonas aeruginosa [8],inactive
same,zone of inhibition at 10000 µg/mL,Escherichia coli [9],10 mm
same,zone of inhibition at 10000 µg/mL,Candida albicans [10],13 mm
same,LC50,[11],643 µg/mL
same,LC50,MG-22A [12],inactive
same,diameter of the inhibition zone (DIZ),Staphylococcus aureus [13],inactive
same,zone of inhibition at 5000 µg/mL,Candida albicans [14],13 mm
same,diameter of the inhibition zone (DIZ),Pseudomonas aeruginosa [15],inactive
same,zone of inhibition at 5000 µg/mL,Escherichia coli [16],10 mm
same,zone of inhibition at 10000 µg/mL,Aspergillus niger [19],15 mm
same,Activity,HT-1080 [20],2%
same,zone of inhibition at 5000 µg/mL,Bacillus cereus [21],8 mm
same,Activity,MG-22A [22],3%
same,LC50,HT-1080 [25],inactive
OC(Cn1cncn1)(Cn1cncn1)c1ccc(F)cc1F [FLUCONAZOLE],diameter of the inhibition zone (DIZ),Staphylococcus aureus [26],inactive
same,zone of inhibition at 2000 µg/mL,Candida albicans [27],10 mm
same,diameter of the inhibition zone (DIZ),Proteus mirabilis [28],inactive
same,diameter of the inhibition zone (DIZ),Staphylococcus aureus [29],inactive
same,diameter of the inhibition zone (DIZ),Escherichia coli [30],inactive
same,MFC,Aspergillus niger [31],> 256 µg/mL
same,MIC,Aspergillus niger [32],8 µg/mL
same,diameter of the inhibition zone (DIZ),Proteus mirabilis [33],inactive
same,diameter of the inhibition zone (DIZ),Pseudomonas aeruginosa [34],inactive
same,MIC,Candida albicans [35],32 µg/mL
same,diameter of the inhibition zone (DIZ),Bacillus cereus [36],inactive
same,diameter of the inhibition zone (DIZ),Bacillus cereus [37],inactive
same,zone of inhibition at 4000 µg/mL,Aspergillus niger [38],18 mm
same,diameter of the inhibition zone (DIZ),Pseudomonas aeruginosa [39],inactive
same,MFC,Candida albicans [40],> 256 µg/mL
same,diameter of the inhibition zone (DIZ),Escherichia coli [41],inactive
same,zone of inhibition at 2000 µg/mL,Aspergillus niger [42],11 mm
